# Literature values in EP0084011B1, “Quinoline carboxylic acid complexes with guanidinium carbonate and guanidine” (Merck & Co., Inc., priority 1982, dated 1983).
smiles,measurement,setting,value
"CCn1cc(C(=O)O)c(=O)c2cc(F)c(N3CCNCC3)cc21 [Parent, 1-ethyl-6-fluoro-1,4-dihydro-4-oxo-7-(1-piperazinyl)-3-quinoline carboxylic acid]",Solubility,"in water, 25 °C, reported water solubility of the parent compound",200 µg/mL
same,water solubility,"pH range of 6-10, background statement",very low water solubility
